Results reported in patent publication US9416132B2, “Substituted imidazo[1,2-b]pyridazines as protein kinase inhibitors” (Tolero Pharmaceuticals, Inc., priority 2011, dated 2016).
Like-named read-outs stand apart in the source and are kept apart here.

Assays:
[1] = biological target: T1, PIM-1 (Homo sapiens (Human), UniProt P11309); assay: Pim-1 kinase inhibition assay (Promega Kinase-Glo); type: biochemical; conditions: read-out: Compound IC50 on Pim1
Excerpt: One illustrative manner in which Pim-1 kinase activity can be determined is by quantifying the amount of ATP remaining in solution after an in vitro Pim-1 kinase reaction. The Kinase-Glo Assay Kit (Promega, Inc., Madison, Wis.) allows this. The amount of ATP remaining in the solution after the kinase reaction serves as a substrate for the luciferase to catalyze luciferin to oxyluciferin plus one photon of light. Thus, the luminescent signal read by the Luminoskan Ascent Instrument (Thermo Electron Corp., Milford, Mass.) correlates with the amount of ATP present after the kinase reaction and inversely correlates with the amount of kinase activity. […] These assays are set up in duplicate 50 ul volumes in white, flat bottom 96 well plates. […] This solution is incubated at 30 degrees Celsius at 360 rpm for two hours. Following the incubation, 50 ul of Kinase-Glo reagent is added to each well, including all positive and negative control wells, and incubated at room temperature for 15 minutes. […] The IC50 values can then be calculated for each inhibitor tested.

[2] = biological target: hERG (Homo sapiens (Human), UniProt Q12809); assay: hERG Fast Patch assay (WuXiApptec); type: cell-based
[3] = biological target: T1, PIM-1; assay: PIM-1/BAD over-expression phospho-BAD (Ser112) AlphaScreen assay in HEK-293 cells; type: cell-based; conditions: PIM-1/BAD over-expression in HEK-293 cells; read-out: average EC50, PIM-1 specific cellular activity (BAD Ser112 phosphorylation)
Method: HEK-293 cells (1×10^4) were seeded in a 96-well plate using EMEM media with serum and incubated overnight at 37° C. in 5% CO2. […] Cells were serum starved for an additional 18 hours, then treated 2 hours with various concentrations of SGI-9481 or 0.5% carrier DMSO control. Media was removed and cells were lysed using 25 μl 1× lysis buffer from the AlphaScreen SureFire Phospho-BAD (Ser112) kit from Perkin Elmer. Lysates (4 μl) were transferred to a 384-well proxiplate, and 5 μl of acceptor mix was added to each well and incubated for 2 hours at room temperature. Donor mix (2 μl) was added to each well, and samples incubated for 2 hours at room temperature and reactions measured on an Envision plate reader (Perkin Elmer) with AlphaScreen capabilities. Non-specific phosphorylation of BAD was subtracted using values from PIM-1 KD transfected cells, and the remaining wells were normalized to the DMSO control wells. EC50 values were calculated using GraphPad Prism software (La Jolla, Calif.).

[4] = test system: 22RV1/PIM-1 xenografts; assay: 22RV1/PIM-1 over-expression mouse tumor xenograft; type: in vivo
Excerpt: (§1) Male and female Nu/Nu mice were purchased from Harlan Sprague Dawley (Indianapolis, Ind.). Female Nu/Nu mice were used for all xenograft evaluations with the exception of the PC-3 xenografts where male Nu/Nu mice were used. Cell lines were expanded in vitro in complete media, and if adherent were harvested by trypsin-EDTA, centrifuged and resuspended in PBS 1:1 with Matrigel (BD Bioscienes). Cells were inoculated subcutaneously in the right hind flank of mice. When tumors reached 100-200 mm^3 by caliper measurement, mice were randomized and dosing of SGI-9481 or vehicle control began and continued every day for 5 days (QD×5) with 2 days off for 18-21 days. Tumor volumes and body weights were determined twice a week, and tumor weights were measured at the completion of the translational xenograft studies.
(§2) The prostate cancer cell line 22RV1 engineered to over-express PIM-1 as previously described (Mumenthaler, et al, Mol. Cancer Ther., 2009, 8(10)2882-93) was evaluated in vivo. A second model engineered to over-express PIM-2 was established using the NIH-3T3 mouse fibroblast cell line.

[5] = test system: NIH-3T3/PIM-2 xenografts; assay: NIH-3T3/PIM-2 over-expression mouse tumor xenograft; type: in vivo
Excerpt: as §1, §2

[6] = test system: UM-UC-3 xenograft tumors; assay: UM-UC-3 established mouse xenograft tumors; type: in vivo
Excerpt: as §1, with “When tumors reached 100-200 mm^3 by caliper measurement, mice were randomized and dosing of SGI-9481 or vehicle control began and continued every day for 5 days (QD×5) with 2 days off for 18-21 days.” left out

[7] = test system: PC-3 xenograft tumors; assay: PC-3 established mouse xenograft tumors; type: in vivo
Excerpt: as §1, with “When tumors reached 100-200 mm^3 by caliper measurement, mice were randomized and dosing of SGI-9481 or vehicle control began and continued every day for 5 days (QD×5) with 2 days off for 18-21 days.” left out

[8] = Pharmacokinetic study in PC-3 tumor-burdened mice; type: in vivo, mouse; conditions: 200 mg/kg
[9] = test system: phosphatidyl inositol-3-kinase (PI3K) family; assay: Selectivity study; type: biochemical
[10] = test system: ML-2 cells (wild-type FLT3) xenografts; assay: ML-2 mouse xenograft study; type: in vivo; conditions: ML-2 (wild-type FLT3) xenografts
Excerpt: as §1

[11] = test system: MV-4-11 (FLT3-ITD) xenografts; assay: MV-4-11 mouse xenograft study; type: in vivo
Excerpt: as §1

[12] = 125 mg/kg, less than with 200 mg/kg

hERG, sequence (Q12809 whole entry): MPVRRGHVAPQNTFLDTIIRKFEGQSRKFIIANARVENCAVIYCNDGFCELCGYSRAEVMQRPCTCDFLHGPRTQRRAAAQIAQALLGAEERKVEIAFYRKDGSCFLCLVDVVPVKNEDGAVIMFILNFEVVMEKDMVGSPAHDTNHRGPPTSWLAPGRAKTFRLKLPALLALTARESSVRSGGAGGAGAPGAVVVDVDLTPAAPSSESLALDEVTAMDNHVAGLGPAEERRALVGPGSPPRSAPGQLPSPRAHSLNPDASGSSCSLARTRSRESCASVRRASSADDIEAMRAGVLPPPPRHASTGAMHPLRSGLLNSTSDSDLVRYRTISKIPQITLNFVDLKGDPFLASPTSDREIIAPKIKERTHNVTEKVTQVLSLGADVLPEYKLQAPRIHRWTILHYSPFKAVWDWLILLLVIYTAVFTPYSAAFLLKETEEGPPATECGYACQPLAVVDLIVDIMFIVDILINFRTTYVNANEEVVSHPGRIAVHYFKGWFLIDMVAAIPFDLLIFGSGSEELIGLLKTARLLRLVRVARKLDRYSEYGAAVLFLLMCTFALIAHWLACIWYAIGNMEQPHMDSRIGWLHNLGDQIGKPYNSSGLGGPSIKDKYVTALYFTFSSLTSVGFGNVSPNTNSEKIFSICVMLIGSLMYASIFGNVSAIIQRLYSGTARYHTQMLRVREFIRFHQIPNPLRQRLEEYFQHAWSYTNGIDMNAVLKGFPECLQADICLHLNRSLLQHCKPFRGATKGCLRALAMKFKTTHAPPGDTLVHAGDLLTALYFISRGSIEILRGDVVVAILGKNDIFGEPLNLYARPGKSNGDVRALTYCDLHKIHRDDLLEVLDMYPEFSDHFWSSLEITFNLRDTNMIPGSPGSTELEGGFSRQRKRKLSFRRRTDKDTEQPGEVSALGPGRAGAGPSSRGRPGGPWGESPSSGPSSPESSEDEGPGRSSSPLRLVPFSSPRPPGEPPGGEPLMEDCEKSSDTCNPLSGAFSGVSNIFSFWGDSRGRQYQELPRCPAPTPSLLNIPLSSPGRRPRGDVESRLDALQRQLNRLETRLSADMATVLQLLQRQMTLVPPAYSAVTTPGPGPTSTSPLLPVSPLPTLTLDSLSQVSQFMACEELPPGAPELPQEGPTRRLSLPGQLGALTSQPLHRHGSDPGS
T1 sequence (P11309 whole entry): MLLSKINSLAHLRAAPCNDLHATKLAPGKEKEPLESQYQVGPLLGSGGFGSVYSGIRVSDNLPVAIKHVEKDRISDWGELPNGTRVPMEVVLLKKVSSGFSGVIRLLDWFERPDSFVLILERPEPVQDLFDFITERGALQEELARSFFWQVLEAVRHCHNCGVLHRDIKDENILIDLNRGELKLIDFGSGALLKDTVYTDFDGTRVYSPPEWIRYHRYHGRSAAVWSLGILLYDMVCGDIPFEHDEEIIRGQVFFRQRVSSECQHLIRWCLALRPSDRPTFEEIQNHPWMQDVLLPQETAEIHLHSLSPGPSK

`N[C@H]1CC[C@H](Nc2ccc3ncc(-c4cccc(OC(F)(F)F)c4)n3n2)CC1` [Compound 8-8, (3-(3-(Trifluoromethoxy)phenyl)imidazo[1,2-b]pyridazin-6-yl)cyclohexane-trans-1,4-diamine] showed an IC50 ([1]; Table IV) of 4 nM.
Work on `C[C@]1(O)CC[C@H](Nc2ccc3ncc(-c4cccc(C(F)(F)F)c4)n3n2)CC1` [Compound 8-30, 1-Methyl-4-((3-(3-(trifluoromethyl)phenyl)imidazo[1,2-b]pyridazin-6-yl)amino)-trans-cyclohexanol] yielded an IC50 ([1]; Table IV) of 103 nM and an IC50 [2] of 12000 nM.
In the case of `CC(C)(O)[C@H]1CC[C@H](Nc2ccc3ncc(-c4cccc(C(F)(F)F)c4)n3n2)CC1` [Compound 8-31], the IC50 ([1]; Table IV) is reported as 1 nM, the EC50 [3] is reported as 67 nM and the subcutaneous tumor growth ([4]; 22RV1/PIM-1 + compound vs 22RV1/PIM-1 + vehicle) is reported as “significantly reduced”. The body weight changes ([4]; 22RV1/PIM-1 xenograft mice) was “No significant changes in body weight”, the subcutaneous tumor growth ([5]; NIH-3T3/PIM-2 + compound vs NIH-3T3/PIM-2 + vehicle) was “significantly inhibited” and the body weight changes ([5]; NIH-3T3/PIM-2 xenograft mice) was “No significant changes in body weight”. The tumor growth inhibition [6, 12] was “significant tumor growth inhibition”, the “body weight or gross adverse toxicity” value ([6]; oral dosing 200 mg/kg) was “no significant changes in body weight or gross adverse toxicity” and the “tumor growth by volume (caliper) and final tumor weight” value ([6]; oral dosing 200 mg/kg) was “significantly reduced”. The tumor growth inhibition [7, 12] was “significant tumor growth inhibition”, the “body weight or gross adverse toxicity” value ([7]; oral dosing 200 mg/kg) was “no significant changes in body weight or gross adverse toxicity” and the “tumor growth by volume (caliper) and final tumor weight” value ([7]; oral dosing 200 mg/kg) was “significantly reduced”. For the same compound, the “plasma and tumor tissue levels” value [8] was “above the in vitro proliferation EC50”, the “activity against multiple members of the PI3K family” value [9] was “inhibitory activity” and the tumor growth inhibition [10] was “significant tumor growth inhibition”. The “effect on established xenografts” value [11] was “induced regressions”.
Compound `CO[C@H]1CC[C@H](Nc2ccc3ncc(-c4cccc(C(F)(F)F)c4)n3n2)CC1` [Compound 8-32, 4-(trans-Methoxycyclohexyl)-3-(3-(trifluoromethyl)phenyl)imidazo[1,2-b]pyridazin-6-amine] has an IC50 ([1]; Table IV) of 115 nM.
For `C[C@]1(O)CC[C@H](Nc2ccc3ncc(-c4cccc(Cl)c4)n3n2)CC1` [Compound 8-36, 4-((3-(3-Chlorophenyl)imidazo[1,2-b]pyridazin-6-yl)amino)-1-methyl-trans-cyclohexano], the IC50 ([1]; Table IV) was 145 nM.
For `CC(C)(O)[C@H]1CC[C@H](Nc2ccc3ncc(-c4cccc(Cl)c4)n3n2)CC1` [Compound 8-37], the IC50 ([1]; Table IV) was 4 nM and the IC50 [2] was > 30000 nM.
In the case of `CC(C)(O)[C@H]1CC[C@H](Nc2ccn3ncc(-c4cccc(C(F)(F)F)c4)c3n2)CC1` [Compound 8-56], the IC50 [2] is reported as > 30000 nM.
With `CC(C)(O)[C@H]1CC[C@H](Nc2ccn3ncc(-c4cccc(Cl)c4)c3n2)CC1` [Compound 8-63] the IC50 [2] was > 30000 nM.
In the case of `CC(C)(N)[C@H]1CC[C@H](Nc2ccc3ncc(-c4cccc(Cl)c4)n3n2)CC1` [Compound 8-79, N-(trans-4-(2-aminopropan-2-yl)cyclohexyl)-3-(3-chlorophenyl)imidazo[1,2-b]pyridazin-6-amine], the IC50 ([1]; Table IV) is reported as 2 nM.
Work on `CO[C@H]1CC[C@H](Nc2ccc3nnc(-c4cccc(OC(F)(F)F)c4)n3c2)CC1` [Compound 8-99, 4-(trans-Methoxycyclohexyl)-3-(3-(trifluoromethoxy)phenyl)-[1,2,4]triazolo[4,3-a]pyridin-6-amine] yielded an IC50 ([1]; Table V) of 83 nM.
Compound `C[C@]1(O)CC[C@H](Nc2ccc3nnc(-c4cccc(C(F)(F)F)c4)n3c2)CC1` [Compound 8-108, 1-Methyl-4-((3-(3-(trifluoromethyl)phenyl)-[1,2,4]triazolo[4,3-a]pyridin-6-yl)amino)-trans-cyclohexanol] has an IC50 ([1]; Table V) of 70 nM.
`CO[C@H]1CC[C@H](Nc2ccc3nnc(-c4cccc(Cl)c4)n3c2)CC1` [Compound 8-113, 4-(trans-Methoxycyclohexyl)-3-(3-chlorophenyl)-[1,2,4]triazolo[4,3-a]pyridin-6-amine] gave an IC50 ([1]; Table V) of 722 nM.
